# Measured values from ChEMBL document CHEMBL4376823, “The discovery of a potent and selective third-generation EGFR kinase inhibitor as a therapy for EGFR L858R/T790M double mutant non-small cell lung cancer” (Eur J Med Chem, 2019).
# Key:
# [1] = Toxicity in BALB/c mouse xenografted with human NCI-H1975 cells assessed as body weight at 10 mg/kg, ig for one week (reference value: 1.6 g); assay type: organism-based; conditions: in vivo, po
# [2] = Toxicity in BALB/c mouse xenografted with human NCI-H1975 cells assessed as body weight at 20 mg/kg, ig for one week (reference value: 1.6 g); assay type: organism-based; conditions: in vivo, po
# NCI-H1975 [3] = assay: Antitumor activity against human NCI-H1975 cells xenografted in BALB/c mouse assessed as tumor volume at 10 mg/kg, ig for one week (reference value: 835.52 mm3); assay type: functional
# NCI-H1975 [4] = assay: Antitumor activity against human NCI-H1975 cells xenografted in BALB/c mouse assessed as tumor growth inhibition at 10 mg/kg, ig for one week; assay type: functional
# NCI-H1975 [5] = assay: Antitumor activity against human NCI-H1975 cells xenografted in BALB/c mouse assessed as tumor growth inhibition at 20 mg/kg, ig for one week; assay type: functional
# NCI-H1975 [6] = assay: Antitumor activity against human NCI-H1975 cells xenografted in BALB/c mouse assessed as tumor volume at 20 mg/kg, ig for one week (reference value: 835.52 mm3); assay type: functional
# [7] = Toxicity in BALB/c mouse xenografted with human NCI-H1975 cells assessed as mortality at 10 to 20 mg/kg, ig for one week; assay type: organism-based; conditions: in vivo, po
# NCI-H1975 [8] = assay: Antitumor activity against human NCI-H1975 cells xenografted in ig dosed BALB/c mouse assessed as tumor growth inhibition for one week; assay type: functional, organism-based
# [9] = molecular target: Epidermal growth factor receptor (Homo sapiens, UniProt P00533); assay: Inhibition of recombinant human GST-tagged EGFR (668 to 1210 residues) expressed in baculovirus expression system using Tyr 04 as substrate incubated for 1 hr by Z'-LYTE assay
# Sequence of Epidermal growth factor receptor (Homo sapiens, UniProt P00533) (P00533 whole entry, the tested form may be a part): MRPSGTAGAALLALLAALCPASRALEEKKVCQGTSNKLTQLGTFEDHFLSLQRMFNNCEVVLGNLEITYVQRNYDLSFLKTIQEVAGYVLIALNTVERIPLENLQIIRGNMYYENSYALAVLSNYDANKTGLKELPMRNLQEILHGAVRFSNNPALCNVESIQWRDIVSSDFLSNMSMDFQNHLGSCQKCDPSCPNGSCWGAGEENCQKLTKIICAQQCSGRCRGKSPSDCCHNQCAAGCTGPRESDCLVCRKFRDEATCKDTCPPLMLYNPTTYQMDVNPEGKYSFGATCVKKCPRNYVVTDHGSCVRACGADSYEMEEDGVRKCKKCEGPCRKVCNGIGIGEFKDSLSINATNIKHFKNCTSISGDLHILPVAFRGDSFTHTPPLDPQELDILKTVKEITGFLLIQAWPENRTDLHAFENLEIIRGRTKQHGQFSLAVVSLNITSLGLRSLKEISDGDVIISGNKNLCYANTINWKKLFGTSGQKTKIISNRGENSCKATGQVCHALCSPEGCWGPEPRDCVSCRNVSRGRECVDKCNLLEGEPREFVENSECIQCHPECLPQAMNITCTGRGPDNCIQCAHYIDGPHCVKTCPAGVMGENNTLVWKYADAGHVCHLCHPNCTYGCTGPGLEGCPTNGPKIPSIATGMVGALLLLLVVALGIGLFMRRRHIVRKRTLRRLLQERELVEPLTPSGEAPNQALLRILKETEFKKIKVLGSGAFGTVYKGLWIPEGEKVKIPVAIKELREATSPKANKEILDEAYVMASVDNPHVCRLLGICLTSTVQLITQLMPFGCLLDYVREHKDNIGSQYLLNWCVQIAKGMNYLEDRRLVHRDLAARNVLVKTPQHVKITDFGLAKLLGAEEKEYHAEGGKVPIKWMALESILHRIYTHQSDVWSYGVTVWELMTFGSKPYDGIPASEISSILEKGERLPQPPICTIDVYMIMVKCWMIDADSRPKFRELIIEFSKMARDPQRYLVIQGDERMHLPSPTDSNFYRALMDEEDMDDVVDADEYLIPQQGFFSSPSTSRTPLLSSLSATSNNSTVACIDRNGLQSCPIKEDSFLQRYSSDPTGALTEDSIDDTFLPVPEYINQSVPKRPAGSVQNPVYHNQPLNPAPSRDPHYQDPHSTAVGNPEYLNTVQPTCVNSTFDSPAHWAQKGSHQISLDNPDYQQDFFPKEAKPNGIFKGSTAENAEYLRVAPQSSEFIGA
# PC-9 = assay: Antiproliferative activity against human PC9 cells expressing EGFR L858R mutant assessed as reduction in cell viability incubated for 72 hrs by MTT assay; assay type: functional, cell-based
# NCI-H1975 [10] = assay: Antiproliferative activity against human NCI-H1975 cells expressing EGFR T790M/L858R mutant assessed as reduction in cell viability incubated for 72 hrs by MTT assay; assay type: functional, cell-based
# NCI-H292 = assay: Antiproliferative activity against human NCI-H292 cells expressing EGFR assessed as reduction in cell viability incubated for 72 hrs by MTT assay; assay type: functional, cell-based
# [11] = molecular target: Epidermal growth factor receptor (Homo sapiens, UniProt P00533, L858R); assay: Inhibition of recombinant human GST-tagged EGFR L858R mutant expressed in baculovirus expression system using Tyr 04 as substrate incubated for 1 hr by Z'-LYTE assay
# Sequence of Epidermal growth factor receptor (Homo sapiens, UniProt P00533, L858R) (P00533 25-1210 L858R limits assumed): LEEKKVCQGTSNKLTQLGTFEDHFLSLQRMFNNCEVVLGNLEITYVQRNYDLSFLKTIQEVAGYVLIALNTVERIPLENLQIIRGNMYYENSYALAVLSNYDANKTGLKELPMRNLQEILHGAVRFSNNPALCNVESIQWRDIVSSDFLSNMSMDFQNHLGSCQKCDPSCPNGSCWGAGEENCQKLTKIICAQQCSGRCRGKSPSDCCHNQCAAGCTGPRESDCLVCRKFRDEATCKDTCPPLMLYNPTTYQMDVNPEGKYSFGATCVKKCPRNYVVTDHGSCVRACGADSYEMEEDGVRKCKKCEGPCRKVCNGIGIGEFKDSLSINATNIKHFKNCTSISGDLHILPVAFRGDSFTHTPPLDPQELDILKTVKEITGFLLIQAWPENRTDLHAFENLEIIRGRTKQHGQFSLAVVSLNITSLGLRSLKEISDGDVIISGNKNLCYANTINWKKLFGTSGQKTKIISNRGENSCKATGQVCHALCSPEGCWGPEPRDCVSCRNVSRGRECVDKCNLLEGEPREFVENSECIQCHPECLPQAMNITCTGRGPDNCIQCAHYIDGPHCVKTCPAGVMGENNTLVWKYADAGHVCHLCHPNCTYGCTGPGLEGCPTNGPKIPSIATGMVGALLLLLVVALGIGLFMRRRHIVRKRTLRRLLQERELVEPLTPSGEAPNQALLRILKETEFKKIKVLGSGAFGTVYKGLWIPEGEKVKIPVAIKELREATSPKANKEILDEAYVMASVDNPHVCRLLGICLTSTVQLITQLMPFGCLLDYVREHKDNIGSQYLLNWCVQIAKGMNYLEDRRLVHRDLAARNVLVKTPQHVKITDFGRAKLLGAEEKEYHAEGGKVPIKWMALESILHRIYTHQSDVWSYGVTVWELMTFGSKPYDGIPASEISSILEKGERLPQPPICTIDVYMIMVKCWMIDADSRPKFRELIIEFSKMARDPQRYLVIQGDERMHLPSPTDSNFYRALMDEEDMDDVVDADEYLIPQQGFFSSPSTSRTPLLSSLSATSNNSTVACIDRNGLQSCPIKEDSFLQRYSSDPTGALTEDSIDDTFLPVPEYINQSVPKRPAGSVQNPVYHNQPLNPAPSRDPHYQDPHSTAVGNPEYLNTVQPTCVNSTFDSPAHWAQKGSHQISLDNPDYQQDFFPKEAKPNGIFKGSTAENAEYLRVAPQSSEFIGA
# [12] = molecular target: Epidermal growth factor receptor (Homo sapiens, UniProt P00533, L858R/T790M); assay: Inhibition of recombinant human GST-tagged EGFR T790M/L858R mutant expressed in baculovirus expression system using Tyr 04 as substrate incubated for 1 hr by Z'-LYTE assay
# Sequence of Epidermal growth factor receptor (Homo sapiens, UniProt P00533, L858R/T790M) (P00533 25-1210 T790M/L858R limits assumed): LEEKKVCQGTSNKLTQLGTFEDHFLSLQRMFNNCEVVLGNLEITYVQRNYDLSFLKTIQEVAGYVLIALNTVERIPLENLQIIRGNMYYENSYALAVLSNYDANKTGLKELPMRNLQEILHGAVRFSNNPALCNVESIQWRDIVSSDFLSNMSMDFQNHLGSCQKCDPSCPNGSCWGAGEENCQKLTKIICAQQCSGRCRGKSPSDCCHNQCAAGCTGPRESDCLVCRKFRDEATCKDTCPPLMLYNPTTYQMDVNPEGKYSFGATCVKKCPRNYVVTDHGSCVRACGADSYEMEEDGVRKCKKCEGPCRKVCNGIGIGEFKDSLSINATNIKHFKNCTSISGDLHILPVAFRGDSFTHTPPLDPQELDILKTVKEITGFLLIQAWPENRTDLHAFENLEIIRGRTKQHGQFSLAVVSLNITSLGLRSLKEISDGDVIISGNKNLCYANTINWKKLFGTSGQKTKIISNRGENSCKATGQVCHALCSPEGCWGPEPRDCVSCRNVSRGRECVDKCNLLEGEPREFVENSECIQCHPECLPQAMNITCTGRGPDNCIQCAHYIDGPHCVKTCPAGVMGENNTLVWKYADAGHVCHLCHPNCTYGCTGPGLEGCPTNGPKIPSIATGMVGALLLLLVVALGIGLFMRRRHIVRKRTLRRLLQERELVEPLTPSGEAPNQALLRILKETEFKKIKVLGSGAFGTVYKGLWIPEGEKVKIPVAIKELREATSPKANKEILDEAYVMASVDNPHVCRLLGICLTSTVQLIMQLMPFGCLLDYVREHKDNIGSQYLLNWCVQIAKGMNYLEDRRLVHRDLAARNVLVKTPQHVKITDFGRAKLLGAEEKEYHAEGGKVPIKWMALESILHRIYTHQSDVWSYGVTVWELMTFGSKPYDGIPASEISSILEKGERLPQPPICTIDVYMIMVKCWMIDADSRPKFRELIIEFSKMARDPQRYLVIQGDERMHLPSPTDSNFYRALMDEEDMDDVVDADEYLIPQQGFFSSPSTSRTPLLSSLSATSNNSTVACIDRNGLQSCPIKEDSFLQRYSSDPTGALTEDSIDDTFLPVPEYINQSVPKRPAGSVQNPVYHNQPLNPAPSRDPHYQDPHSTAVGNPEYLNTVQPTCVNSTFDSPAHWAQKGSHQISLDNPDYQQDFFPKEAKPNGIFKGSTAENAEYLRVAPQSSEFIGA
# [13] = Cytotoxicity against human HLF cells expressing EGFR assessed as reduction in cell viability incubated for 72 hrs by MTT assay; assay type: cell-based
# [14] = Selectivity index, ratio of IC50 for human LO2 cells to IC50 for human NCI-H1975 cells expressing EGFR T790M/L858R mutant; assay type: toxicity
# [15] = Selectivity index, ratio of IC50 for human HEK293A cells to IC50 for human NCI-H1975 cells expressing EGFR T790M/L858R mutant; assay type: toxicity
# [16] = Selectivity index, ratio of IC50 for human BJ cells to IC50 for human NCI-H1975 cells expressing EGFR T790M/L858R mutant; assay type: toxicity
# [17] = Cytotoxicity against human HEK293A cells expressing EGFR assessed as reduction in cell viability incubated for 72 hrs by MTT assay; assay type: cell-based, HEK293-A
# [18] = Selectivity index, ratio of IC50 for human HK2 cells to IC50 for human NCI-H1975 cells expressing EGFR T790M/L858R mutant
# [19] = Selectivity index, ratio of IC50 for human HLF cells to IC50 for human NCI-H1975 cells expressing EGFR T790M/L858R mutant
# L02 [20] = assay: Cytotoxicity against human LO2 cells expressing EGFR assessed as reduction in cell viability incubated for 72 hrs by MTT assay; assay type: cell-based; conditions: L02, 72 h
# BJ = assay: Cytotoxicity against human BJ cells expressing EGFR assessed as reduction in cell viability incubated for 72 hrs by MTT assay; assay type: cell-based
# HK-2 [21] = assay: Cytotoxicity against human HK2 cells assessed as change in cell morphology at 5 and 10 uM incubated for 48 hrs by microscopic analysis; assay type: cell-based; conditions: hk-2, 48 h
# L02 [22] = assay: Cytotoxicity against human LO2 cells assessed as change in cell morphology at 5 and 10 uM incubated for 48 hrs by microscopic analysis; assay type: cell-based; conditions: l02, 48 h
# NCI-H1975 [23] = assay: Inhibition of cell migration in human NCI-H1975 cells at 25 nM incubated for 24 hrs by phase contrast microscopy relative to control; assay type: functional
# HK-2 [24] = assay: Cytotoxicity against human HK2 cells expressing EGFR assessed as reduction in cell viability incubated for 72 hrs by MTT assay; assay type: cell-based; conditions: HK-2, 72 h
# [25] = Cytotoxicity against human HEK293A cells assessed as change in cell morphology at 5 and 10 uM incubated for 48 hrs by microscopic analysis; assay type: cell-based; conditions: hek293-a
# [26] = Mus musculus, NCI-H1975, po, 168 h, read-out: TGI
Structure (SMILES),IC50 [9] [µM],"IC50 (PC-9; Homo sapiens, PC-9, 72 h) [µM]","IC50 (NCI-H1975 [10]; Homo sapiens, NCI-H1975, 72 h) [µM]","IC50 (NCI-H292; Homo sapiens, NCI-H292, 72 h) [µM]",IC50 [11] [µM],IC50 [12] [µM],other results
"C=CC(=O)Nc1cc(Nc2nccc(-c3cn(C)c4ccccc34)n2)c(OC)cc1[S+]([O-])CCN(C)C.O=S(=O)(O)O (single isomer, unassigned; (+))",–,–,–,–,–,–,Activity [1]: 2.1 g; Activity [2]: 2.1 g; Activity (NCI-H1975 [3]): 141.5 mm3; TGI (NCI-H1975 [4]): 81.82%; TGI (NCI-H1975 [5]): 85.41%; Activity (NCI-H1975 [6]): 117.87 mm3
C=CC(=O)Nc1cc(Nc2nccc(-c3cn(C)c4ccccc34)n2)c(OC)cc1N(C)CCN(C)C.O=S(=O)(O)O,–,–,–,–,–,–,Activity [2]: 1.9 g; Activity [7]: Non-Toxic; TGI (NCI-H1975 [5]): 98.49%; Activity (NCI-H1975 [6]): 18.23 mm3
"C=CC(=O)Nc1cc(Nc2nccc(-c3cn(C)c4ccccc34)n2)c(OC)cc1[S+]([O-])CCN(C)C (single isomer, unassigned; (+))",–,–,–,–,–,–,TGI (NCI-H1975 [8]): Dose-dependent effect
C=CC(=O)Nc1cc(Nc2nccc(-c3cn(C)c4ccccc34)n2)c(OC)cc1N(C)CCCl,1.98,1.1,0.654,12.1,0.421,0.122,–
C=CC(=O)Nc1cc(Nc2nccc(-c3cn(C)c4ccccc34)n2)c(OC)cc1S(=O)(=O)CCN(C)C,–,2.29,0.992,6.42,–,–,–
C=CC(=O)Nc1cc(Nc2nccc(-c3cn(C)c4ccccc34)n2)c(OC)cc1SCCN(C)C,0.329,0.044,0.049,1.04,0.014,0.011,–
"C=CC(=O)Nc1cc(Nc2nccc(-c3cn(C)c4ccccc34)n2)c(OC)cc1[S+]([O-])CCN(C)C.O=S(=O)(O)O (single isomer, unassigned; (-))",–,–,–,–,–,–,Activity [1]: 1.6 g; Activity [2]: 2.4 g; Activity (NCI-H1975 [3]): 106.81 mm3; inhibition in vivo at 10 mg/kg (NCI-H1975 [4]; [26]): 87.6%; Activity [7]: Non-Toxic; inhibition in vivo at 20 mg/kg (NCI-H1975 [5]; [26]): 94.3%; Activity (NCI-H1975 [6]): 48.23 mm3
C=CC(=O)Nc1cc(Nc2nccc(-c3cn(C)c4ccccc34)n2)c(OC)cc1N(C)CCSC,1.43,3.9,2.8,17.9,0.308,0.215,–
C=CC(=O)Nc1cc(Nc2nccc(-c3cn(C)c4ccccc34)n2)c(OC)cc1N1CCSCC1,0.522,0.308,0.399,19.3,0.079,0.064,–
C=CC(=O)Nc1cc(Nc2nccc(-c3cn(C)c4ccccc34)n2)c(OC)cc1N(C)CC[S+](C)[O-] (stereo not given),1.74,1.49,1.21,13.9,0.475,0.105,–
C=CC(=O)Nc1cc(Nc2nccc(-c3cn(C)c4ccccc34)n2)c(OC)cc1N1CCS(=O)(=O)CC1,0.339,0.101,0.096,3.72,0.046,0.038,–
C=CC(=O)Nc1cc(Nc2nccc(-c3cn(C)c4ccccc34)n2)c(OC)cc1[S+]([O-])CCN(C)C (stereo in doubt; (+)-4i),0.318,–,–,–,0.006,0.005,IC50 [13]: 9.72 µM; Ratio IC50 [14]: > 625; Ratio IC50 [15]: 233; IC50 (PC-9; pc-9): 0.018 µM; Ratio IC50 [16]: > 625; IC50 (NCI-H1975 [10]; nci-h1975): 0.016 µM; IC50 (NCI-H292; nci-h292): 1.34 µM; IC50 ([17]; hek293-a): 3.73 µM; Ratio IC50 [18]: >625; Ratio IC50 [19]: 233
C=CC(=O)Nc1cc(Nc2nccc(-c3cn(C)c4ccccc34)n2)c(OC)cc1N(C)CCN(C)C [OSIMERTINIB],–,[…],[…],1.08,–,–,"IC50 ([13]; Homo sapiens, HLF, 72 h): 8.74 µM; IC50 (L02 [20]): […]; IC50 (BJ): > 10 µM; Activity (HK-2 [21]): Toxic; Activity (L02 [22]): Toxic; inhibition (INH) (NCI-H1975 [23]): 60.54%; IC50 ([17]; Homo sapiens, HEK293-A, 72 h): 2.42 µM; IC50 (HK-2 [24]): 3.56 µM; Activity [25]: Toxic"
C=CC(=O)Nc1cc(Nc2nccc(-c3cn(C)c4ccccc34)n2)c(OC)cc1N(C)CCO,–,0.137,0.184,8.32,–,–,–
C=CC(=O)Nc1cc(Nc2nccc(-c3cn(C)c4ccccc34)n2)c(OC)cc1N1CC[S+]([O-])CC1,0.421,0.177,0.106,8.36,0.065,0.075,–
C=CC(=O)Nc1cc(Nc2nccc(-c3cn(C)c4ccccc34)n2)c(OC)cc1[S+]([O-])CCN(C)C (racemic),0.239,0.017,0.013,1.05,0.007,0.005,"IC50 ([13]; Homo sapiens, HLF, 72 h): 9.31 µM; IC50 (L02 [20]): > 10 µM; selectivity ratio ([14]; read-out: Ratio IC50): > 769; IC50 (BJ): > 10 µM; selectivity ratio ([15]; read-out: Ratio IC50): 322; selectivity ratio ([16]; read-out: Ratio IC50): > 769; Activity (HK-2 [21]): Non-Toxic; Activity (L02 [22]): Non-Toxic; IC50 ([17]; hek293-a): 4.19 µM; IC50 (HK-2 [24]): > 10 µM; Ratio IC50 [18]: >769; Ratio IC50 [19]: 715; Activity [25]: Non-Toxic"
